{"source": "patent US20040029892A1", "about": "“Compositions and dosage forms for application in the oral cavity in the treatment of mykoses” (priority 2003, published 2004)", "origin": "cited, not measured here", "conditions": "almost insoluble"}
{"smiles": "CCC(C)n1ncn(-c2ccc(N3CCN(c4ccc(OCC5COC(Cn6cncn6)(c6ccc(Cl)cc6Cl)O5)cc4)CC3)cc2)c1=O", "note": "(racemic) [itraconazole, (±)-cis-4-[4-[4-[4-[[2-(2,4-dichlorophenyl)-2(1H-1,2,4-triazol-1-yl-methyl)-1,3-dioxolan-4-yl]methoxy]phenyl]-1piperazinyl]phenyl]-2,4-dihydro-2-(1-methylpropyl)-3H-1,2,4-triazol-3-one]", "values": [{"measurement": "solubility in water", "result": "less than 1 μg/ml"}]}
